Measurements taken from patent US20040126817A1, “Gap junction permeability assay” (priority 2001, published 2004).
Counter-ions that a name gives are not always drawn.

Legend:
[1] = IV injection of glucagon in humans; cited from earlier work
[2] = tested on: GJIC in NRK (Normal Rat Kidney) cells, mainly Cx43; assay: Gap junction coupling assay, NRK sender cells (D1-receptor) plus NRK receiver cells (CRE-luciferase), endogenous connexins; assay type: cell-based; conditions: for Luciferase responses: NRK sender:receiver 1:1, 10 μM forskolin or 1 μM cAMP, 6 hours; for Luciferase responses / Luciferase response, 50 μM AGA / Luciferase response, 100 μM AGA / Luciferase response, 150 μM AGA / Luciferase response, Vehicle: control = 100%; for Luciferase response, 50 μM AGA / Luciferase response, 100 μM AGA / Luciferase response, 150 μM AGA / Luciferase response, Vehicle: NRK sender:receiver 1:1, agonist 10 μM, 6½ hours; for Luciferase response, 50 μM AGA: 50 μM AGA added 30 min before; for Luciferase response, 100 μM AGA: 100 μM AGA added 30 min before; for Luciferase response, 150 μM AGA: 150 μM AGA added 30 min before; for Luciferase response, Vehicle: no AGA (DMSO)
[3] = tested on: NRK cells; assay: CRE-luciferase response in NRK receiver cells only (check for endogenous D1-receptor); assay type: cell-based, rat; conditions: for Luciferase responses: 10 μM, 6½ hours, control = 100%
Protocol: These experiments are performed to investigate whether the NRK cells express the D1-receptor endogenously. If NRK cells express D1 receptor endogenously, the receiver cells would be able to generate cAMP and produce a chemiluminescent signal independently of GJIC and the endogenous messenger generated by the sender cell. So only receiver cells are used for this experiment.
Cells are transfected with 5 μg CRE-luciferase DNA and 500 ng pRL-SV40 DNA per 6 cm dish. Each well of a 24-well plate received 250 μL cell suspension and 250 μL media, or approx. 25 000 cells. Cells are stimulated with 10 μM forskolin or apomorphine during 6½ hours before harvesting.

[4] = tested on: Cx32-mediated GJIC in HeLa cells; assay: Gap junction coupling assay, HeLa sender and receiver cells with or without transfected Cx32; assay type: cell-based, human; conditions: 10 μM, duplicates; for Luciferase response, Cells transfected with Cx32: 4.8 μg Cx32 DNA; for Luciferase response, Cells transfected with Cx32 / Luciferase response, Cells not transfected with Cx32: 1 ml sender + 0.2 ml receiver cells, percentage of control; for Luciferase response, Single dose Cx32: sender cells 2.4 μg Cx32 DNA; for Luciferase response, Single dose Cx32 / Luciferase response, Double dose Cx32: control = 100%; for Luciferase response, Double dose Cx32: sender cells 4.8 μg Cx32 DNA
[5] = tested on: GJIC in CHO (Chinese Hamster Ovary) cells; assay: Gap junction coupling assay, CHO sender and receiver cells with or without exogenous Cx32; assay type: cell-based; conditions: 10 μM, 8 hours, control = 100%, duplicates; for Luciferase response, With exogenous Cx32: CHO transfected with Cx32 DNA; for Luciferase response, No exogenous Cx32: CHO
[6] = tested on: HeLa cells; assay: CRE-luciferase response in HeLa receiver cells only; assay type: cell-based, human; conditions: n=2, control = 100%
Protocol: This is conformed by an experiment in which apomorphine is added to wells containing only receiver cells. As predicted, there is no elicited response. Luciferase activity values are 100.0±6.5% (control, n=2) and 75.9±3.0% (apomorphine, n=2).

Compound	Luciferase responses [2]	Luciferase response, 50 μM AGA [2]	Luciferase response, 100 μM AGA [2]	Luciferase response, 150 μM AGA [2]	Luciferase response, Vehicle [2]	Luciferase responses [3]	Luciferase response, Cells transfected with Cx32 [4]	Luciferase response, Cells not transfected with Cx32 [4]	Luciferase response, Single dose Cx32 [4]	Luciferase response, Double dose Cx32 [4]	Luciferase response, With exogenous Cx32 [5]	Luciferase response, No exogenous Cx32 [5]	also measured
glucagon	–	–	–	–	–	–	–	–	–	–	–	–	plasma levels of cAMP [1]: up to 200 nM
C=C[C@@]1(C)CC(=O)[C@]2(O)[C@@]3(C)[C@@H](O)CCC(C)(C)[C@@H]3[C@H](O)[C@H](OC(C)=O)[C@@]2(C)O1 [Forskolin, forskolin]	669.3±56.8%	732.6 ± 52.2%	669.9 ± 18.3%	685.8 ± 32.0%	581.3%	876.6%±64.1	254.6 ± 113.3%	272.5 ± 40.9%	139.0 ± 14.3%	195.1 ± 18.2%	356.5 ± 21.8%	701.9 ± 0.0%	increase in chemiluminescent signal ([3]; 10 μM forskolin): more than 8 fold
CC1(C)[C@@H](O)CC[C@]2(C)[C@H]3C(=O)C=C4[C@H]5C[C@@](C)(C(=O)O)CC[C@]5(C)CC[C@@]4(C)[C@]3(C)CC[C@@H]12 [18-alpha-glycyrrhetinic acid]	–	–	–	–	–	–	–	–	–	–	–	–	effect on the apomorphine-induced chemiluminescent signal (GJIC) ([2]; NRK, 50, 100, 150 μM AGA, 10 μM apomorphine): able to decrease this effect in a concentration-dependent manner; effect on the response to forskolin (independent of GJIC) ([2]; NRK, 50, 100, 150 μM AGA, 10 μM forskolin): unaffected
CN1CCc2cccc3c2[C@H]1Cc1ccc(O)c(O)c1-3 [Apomorphine, Apomorphine hydrochloride]	–	156.0 ± 8.9%	137.6 ± 9.3%	109.7 ± 8.0%	297.5%	124.8%±6.8	217.5 ± 3.0%	109.5 ± 1.1%	121.1 ± 7.2%	176.5 ± 8.1%	302.2 ± 2.2%	222.6 ± 22.6%	increase over background of the chemiluminescent signal ([2]; NRK sender:receiver 1:1, 10 μM apomorphine): three-fold increase; Receiver Cell Response ([2]; NRK sender:receiver 5:1, 6 hours, buffer = 100%, mean±SEM of 3): 324 ± 14.4%; Luciferase activity values [6]: 75.9±3.0%
Nc1ncnc2c1ncn2[C@@H]1O[C@@H]2COP(=O)(O)O[C@H]2[C@H]1O [cAMP, cyclic adenosine monophosphate]	87.5±5.8%	–	–	–	–	–	–	–	–	–	–	–	–
